Laboratory results as given in patent US20220341825A1, “CELL-COMPATIBLE TISSUE CLARIFYING COMPOSITION” (OSAKA UNIVERSITY, priority 2019, published 2022).
Marks after values point to notes of the source that are not given here.

Columns and labels:
human skin fibroblasts = assay: Cell survival rate after transparentization treatment (trypan blue); format: cell-based
Protocol: The cell survival rates in the transparentization using AMP, ADP, ATP, CMP, TMP, fructose, glucose, trehalose, sucrose, antipyrine, RapiClear 1.52, and poly A were examined. 1.0×10^5 human skin fibroblasts were seeded in a 24-well plate and cultured in DMEM medium. The next day, after washing with PBS, 100 μL of 100 wt % AMP aqueous solution, 100 wt % ADP aqueous solution, 100 wt % ATP aqueous solution, 100 wt % CMP aqueous solution, 100 wt % TMP aqueous solution, 100 wt % fructose aqueous solution, 100 wt % glucose aqueous solution, 100 wt % trehalose aqueous solution, 100 wt % sucrose aqueous solution, 100 wt % antipyrine aqueous solution, RapiClear 1.52 aqueous solution, or 25 wt % poly A aqueous solution was added, and the resultant was incubated at 37° C. for 30 minutes. Distilled water was added for a control. After the incubation, 0.1% trypsin was directly added, and the resultant was incubated for 5 minutes. Cell dissociation was confirmed, 3 mL of DMEM medium was added, and then the resultant was collected into a 15-mL centrifuge tube, and centrifuged (1000 rpm, 5 minutes, 20° C.). The supernatant was aspirated and 100 μL of DMEM medium was added. 10 μL was separated from the resultant and placed in an Eppendorf tube, and 10 μL of trypan blue solution was added thereto. Then, 10 μL was separated and the number of cells was counted with an automated cell counter.

[1] = tested on: collagen solution (sCMF, sonicated collagen microfiber); assay: Transparentizing ability in collagen model system (transmittance at 600 nm); settings: for transparentizing ability: screening in collagen (sCMF) solution; for transmittance: room temperature, 2 hours
Protocol: Since collagen is most abundant in biological tissue, a collagen solution was used as a model of the biological tissue to screen various compounds for their transparentizing ability. The outline of the screening experiment is as follows. Aqueous solutions of test compounds were added to multi-well plates containing aqueous solutions of sCMF (sonicated collagen microfiber) and allowed to stand at room temperature for a certain period of time, and subsequently, apparent transparency and transmittance at 600 nm were measured. 100 μL of 100 wt % AMP aqueous solution (refractive index: 1.43), 100 wt % CMP aqueous solution (refractive index: 1.42), 100 wt % TMP aqueous solution (refractive index: 1.41) or 25 wt % poly A aqueous solution (refractive index: 1.37) were added. The molecular weight of poly A was 100 to 500 kDa. Distilled water was added for a control. The resultant was allowed to stand at room temperature for 2 hours, and then the absorbance at 600 nm was measured with a plate reader (Synergy HTX). The obtained absorbance was substituted into an equation according to the Lambert-Beer formula to calculate the transmittance. 100 μL of 0.1 wt %, 0.5 wt %, 1 wt %, and 5 wt % sCMF aqueous solutions were placed in a 96-well plate, and 100 μL of 10 wt % (refractive index: 1.35), 25 wt % (refractive index: 1.38), 50 wt % (refractive index: 1.39), and 100 wt % (refractive index: 1.43) AMP aqueous solutions were added. After allowing the obtained samples to stand at room temperature for 2 hours, an absorbance at 600 nm was measured with a plate reader (Synergy HTX). The obtained absorbance was substituted into an equation according to the Lambert-Beer formula to calculate the transmittance.

[2] = Refractive index of aqueous solutions; format: physicochemical
[3] = tested on: living three-dimensional tissue model; assay: Transparentization test (2) on living three-dimensional tissue model, confocal observation; format: cell-based, human; settings: 60 wt % AMP, 30 minutes
Protocol: (§1) A transparentization was performed on a living three-dimensional tissue model. 60 wt % AMP was used as a transparentizing agent, and RapiClear 1.52 and 61 wt % fructose were used for comparison. The experimental procedure was the same as that of Example 4, except that the paraformaldehyde fixation described in step (6) was not performed.
The upper part of FIG. 5 is images immediately before the treatment (0 minutes), in which the left panel is an image observed in a direction perpendicular to the dish, and the right panel is an image observed in a direction horizontal to the dish. The lower part of FIG. 5 is images immediately after the treatment (30 minutes), in which the left panel is an image observed in a direction perpendicular to the dish, and the right panel is an image observed in a direction horizontal to the dish. By the transparentization treatment with AMP, the central portion of the tissue was seen so that the deep part up to 200 μm could be observed.

[4] = tested on: living three-dimensional tissue model; assay: Cell survival rate in living three-dimensional tissue model (trypan blue); format: cell-based, human
Protocol: as §1
Further after 30, 60, and 90 minutes of the transparentization treatment in the same experimental system as described above, the tissue was disintegrated with proteinase K and collagenase (1:1) and subjected to trypan blue staining to count the number of viable cells. […] The transparentization treatment with AMP had no significant effect on the cell survival rate (a cell survival rate of 92%). […] The cell survival rate was as high as 92% and 90% after the 30-minute and 60-minute transparentization treatments, respectively. It was confirmed that a significant number of cells survived even after the 90-minute transparentization treatment (a cell survival rate of 45%).

[5] = tested on: three-dimensional tissue model (human skin fibroblasts, human umbilical vein endothelial cells); assay: Transparentization test (1) on fixed three-dimensional tissue model; format: cell-based; settings: 100 wt % AMP, 37° C., 30 minutes; paraformaldehyde-fixed tissue
Protocol: (1) A solution containing fibrinogen at a concentration of 2 mg/100 μL, CMF at a concentration of 6 mg/100 μL, and thrombin at a concentration of 1 unit/100 μL using DMEM was prepared.
(2) 1.0×10^5 of human skin fibroblasts, 5.0×10^4 of human umbilical vein endothelial cells, 18 μL of a mixed medium of DMEM and EGM-2, and 2 μL of a thrombin solution were placed in an Eppendorf tube to prepare a cell suspension.
(3) The fibrinogen solution prepared in (1) was combined with a CMF solution, and 40 μL from 200 μL in total of the resulting solution was taken out and added to the cell suspension prepared in (2).
(4) The cell suspension prepared in (3) was placed in a glass bottom dish to prepare a 30-μL drop.
(5) After the drop was incubated for 2 hours, 2 mL of a mixed medium of DMEM and EGM-2 was added.
(6) The drop was cultured at 37° C. for 1 week, washed with PBS, and then fixed with paraformaldehyde for 15 minutes.
(7) The fixed tissue was subjected to CD31 immunostaining and DAPI staining.
(8) A transparentization treatment was performed with 100 wt % AMP at 37° C. for 30 minutes.

[6] = human skin fibroblasts, 100 wt % aqueous solutions (RapiClear 1.52 aqueous solution), 37° C., 30 minutes, n = 3
[7] = 600 nm, 100 wt % aqueous solution added to sCMF solution

## Nc1ncnc2c1ncn2[C@@H]1O[C@H](COP(=O)(O)OP(=O)(O)O)[C@@H](O)[C@H]1O [ADP, adenosine diphosphate]
Human skin fibroblasts; human, 30 min, 100 wt %
  Survival rate (%): 87* %
[1]
  transparentizing ability: high transparentizing ability

## OC[C@H]1O[C@@](CO)(O[C@H]2O[C@H](CO)[C@@H](O)[C@H](O)[C@H]2O)[C@@H](O)[C@@H]1O [Sucrose, sucrose, reference compound]
Human skin fibroblasts; human, 30 min, 100 wt %
  Survival rate (%): 14%

## Cc1cc(=O)n(-c2ccccc2)n1C [Antipyrine, antipyrine, reference compound]
Human skin fibroblasts; [6]
  Survival rate (%): 33%

## Cc1cn([C@@H]2O[C@H](COP(=O)(O)O)[C@@H](O)[C@H]2O)c(=O)[nH]c1=O [TMP, 5-methyluridine monophosphate]
Human skin fibroblasts; human, 30 min, 100 wt %
  Survival rate (%): 42%
[2]; 100 wt % aqueous solution
  refractive index: 1.41
[1]; [7]
  transmittance: 31.6%
[1]
  transparentizing ability: high transparentizing ability

## poly A
Human skin fibroblasts
  effect on the survival rate (in words): little effect on the survival rate
[2]; 25 wt % aqueous solution
  refractive index: 1.37
[1]; 600 nm, 25 wt % aqueous solution added to sCMF solution
  transmittance: 69.0%
[1]
  transparentizing ability: high transparentizing ability

## Nc1ncnc2c1ncn2[C@@H]1O[C@H](COP(=O)(O)O)[C@@H](O)[C@H]1O [AMP, adenosine monophosphate]
[3]
  observable depth of tissue: up to 200 μm
Human skin fibroblasts; human, 30 min, 100 wt %
  Survival rate (%): 92* %
[2]; 10 wt % aqueous solution
  refractive index: 1.35
[2]; 25 wt % aqueous solution
  refractive index: 1.38
[2]; 50 wt % aqueous solution
  refractive index: 1.39
[2]; 100 wt % aqueous solution
  refractive index: 1.43
[4]; human, 30 min
  cell survival rate: 92%
[4]; human, 60 min, 60 wt %
  cell survival rate: 90%
[4]; human, 90 min, 60 wt %
  cell survival rate: 45%
[5]
  transparentization of tissue (naked eye): completely transparentized
[1]; 10-100 wt % AMP, 0.1-5 wt % sCMF, 600 nm, 2 hours room temperature
  effect of AMP concentration on transmittance: as the AMP concentration was higher, the transmittance was higher
[1]; [7]
  transmittance: 75.6%
[1]
  transparentizing ability: high transparentizing ability

## Nc1ccn([C@@H]2O[C@H](COP(=O)(O)O)[C@@H](O)[C@H]2O)c(=O)n1 [CMP, cytidine monophosphate]
Human skin fibroblasts; human, 30 min, 100 wt %
  Survival rate (%): 53%
[2]; 100 wt % aqueous solution
  refractive index: 1.42
[1]; [7]
  transmittance: 45.2%
[1]
  transparentizing ability: high transparentizing ability

## O=C(CO)[C@@H](O)[C@H](O)[C@H](O)CO [Fructose, fructose, reference compound]
Human skin fibroblasts; [6]
  Survival rate (%): 6%
[4]; 30 minutes of treatment, 60 wt % AMP, RapiClear 1.52, 61 wt % fructose
  cell survival rate: 22%

## OC[C@H]1O[C@H](O[C@H]2O[C@H](CO)[C@@H](O)[C@H](O)[C@H]2O)[C@H](O)[C@@H](O)[C@@H]1O [Trehalose, trehalose, reference compound]
Human skin fibroblasts; human, 30 min, 100 wt %
  Survival rate (%): 25%

## Nc1ncnc2c1ncn2[C@@H]1O[C@H](COP(=O)(O)OP(=O)(O)OP(=O)(O)O)[C@@H](O)[C@H]1O [ATP, adenosine triphosphate]
Human skin fibroblasts; ATP transparentization treatment
  cell survival rate (in words): low
Human skin fibroblasts; [6]
  Survival rate (%): 26%
[1]
  transparentizing ability: high transparentizing ability
